In patent US8394792B2, “Heterocyclic derivatives” (C&C Research Laboratories, priority 2008, dated 2013):
In brackets after ≈: the same amount, converted by molar mass. Where a name gives a salt, the structure may show the parent alone. Read-outs that look alike come from different tables or passages of the source.

Legend:
hURAT1 = biological target: T1, hURAT1 (Homo sapiens, UniProt Q96S37); assay: Test for inhibiting urate reuptake activity via hURAT1 (uric acid transport assay in hURAT1-overexpressed HEK293 cell line); format: cell-based; conditions: hURAT1-overexpressed HEK293 cells, [14C]-uric acid uptake, 100 μM uric acid
T1 construct: expressed in transfected cells; host or cells: HEK293 (human kidney cell line), transient transfection with Fugene6
T1 sequence (Q96S37 1-553): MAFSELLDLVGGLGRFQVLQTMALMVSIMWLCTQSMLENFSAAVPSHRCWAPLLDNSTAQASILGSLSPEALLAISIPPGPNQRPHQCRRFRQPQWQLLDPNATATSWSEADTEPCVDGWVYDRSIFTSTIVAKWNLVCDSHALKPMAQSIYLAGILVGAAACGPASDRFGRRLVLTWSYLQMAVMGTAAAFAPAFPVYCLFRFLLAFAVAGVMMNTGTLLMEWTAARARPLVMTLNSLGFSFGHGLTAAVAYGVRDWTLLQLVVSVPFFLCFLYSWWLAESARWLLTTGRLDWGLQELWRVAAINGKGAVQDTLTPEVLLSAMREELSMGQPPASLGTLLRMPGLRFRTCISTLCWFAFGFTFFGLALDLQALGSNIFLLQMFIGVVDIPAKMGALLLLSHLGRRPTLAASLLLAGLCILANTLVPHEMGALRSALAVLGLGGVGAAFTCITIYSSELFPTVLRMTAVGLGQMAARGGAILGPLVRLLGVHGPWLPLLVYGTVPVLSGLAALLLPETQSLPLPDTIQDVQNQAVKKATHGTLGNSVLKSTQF
Method: Test for Inhibiting Urate Reuptake Activity Via hURAT1
[hURAT1 Overexpression by Transient Transfection in Human Kidney Cell Line]
A human kidney cell line, HEK293 was incubated by using OptiMEM medium in 100 mm dish at (3*10^6 cells) for 24 hours. In order for the expression of hURAT1, a transfection mixture solution (Fugene6 18 μl:hURAT1 DNA 6 μg=3:1, in 600 μl OptiMEM medium/dish) was prepared and kept for 15 minutes at room temperature. To each dish, 600 μl of the mixture solution was injected and then incubated in 37[…] cell incubator for 24 hours. The hURAT1-overexpressed HEK293 cell line was trypsinized and cells were harvested. Cells were resuspended in medium and seeded at 6*10^5 cells/well and incubated for 24 hours in 24-well plate which was surface-coated with Poly-D-Lysine.
[Uric Acid Transport Assay in hURAT1-Overexpressed HEK293 Cell Line]
For each concentration, the stock sample solution was diluted in PBS (1 μl in 800 μl of PBS) as 1.25 fold concentrated working sample solution to obtain final concentrations of 0.01, 0.1, 1 and 10 μM. The hURAT1-overexpressed cell line was washed with 1 ml of PBS. After washing, PBS was discarded and the sample solution was diluted by 1.25 fold with PBS. Preincubation of cells with 200 μl/well of sample solution made above was conducted for 30 minutes in 37[…] cell incubator. After the incubation, each well was treated with 50 μl of PBS containing 500 μM [^14C]-uric acid (final 100 μM of uric acid/well). Cells were incubated for 2 minutes. The cells were washed twice with 1 ml of PBS.
To measure the uric acid uptake, each well was treated with 150 μl of M-per buffer (PIERCE) and kept in 37° C. cell incubator for 30 minutes to make cell lysates. 150 μl of cell lysates was transferred into test tube and 4 ml of scintillation cocktail was added. CPM value of [^14C]-uric acid absorbed into cells was detected using liquid scintillation counter. IC50 for the inhibition of uric acid uptake by each test sample was analyzed by computational numerical processing.

[1] = Test for solubility according to pH; format: physicochemical; conditions: 37° C. 2 hours; for solubility at 2 h: thermodynamic from solid
Cebus monkey = assay: Test for uricosuric effect in Cebus monkey; format: in vivo; conditions: comparison test
CYP2C9 = CYP2C9 (Homo sapiens, UniProt P11712); assay: biochemical
Sequence of CYP2C9 (P11712 whole entry): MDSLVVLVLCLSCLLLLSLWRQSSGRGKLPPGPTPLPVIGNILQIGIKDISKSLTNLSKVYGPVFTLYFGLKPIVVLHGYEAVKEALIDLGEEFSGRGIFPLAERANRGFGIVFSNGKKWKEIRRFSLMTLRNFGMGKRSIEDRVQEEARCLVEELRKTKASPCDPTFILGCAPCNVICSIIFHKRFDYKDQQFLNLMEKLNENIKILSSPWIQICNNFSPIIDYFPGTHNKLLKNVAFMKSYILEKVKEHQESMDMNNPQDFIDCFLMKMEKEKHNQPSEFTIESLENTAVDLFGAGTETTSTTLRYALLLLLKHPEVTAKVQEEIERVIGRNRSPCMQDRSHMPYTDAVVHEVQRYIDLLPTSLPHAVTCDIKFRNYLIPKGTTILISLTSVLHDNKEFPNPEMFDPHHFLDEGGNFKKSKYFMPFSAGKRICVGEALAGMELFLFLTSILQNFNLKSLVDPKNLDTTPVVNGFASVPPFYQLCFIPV

[2] = pH 1.2, simulated gastric fluid, first solution pH about 1.2, 2 mg/mL, read-out: Solubility (μg/mL) pH 1.2
[3] = pH 6.8, aqueous buffer, second solution pH about 6.8, 2 mg/mL, read-out: Solubility (μg/mL) pH 6.8
[4] = read-out: IC50 (μM) hURAT, level of uric acid reuptake inhibition
[5] = 37 °C, pH 1.2, simulated gastric fluid, first solution pH about 1.2, 2 mg/mL, read-out: Solubility (μg/mL) pH 1.2
[6] = 37 °C, pH 6.8, aqueous buffer, second solution pH about 6.8, 2 mg/mL, read-out: Solubility (μg/mL) pH 6.8
[7] = second solution pH about 6.8, 2 mg/mL

Row | IC50 (CYP2C9) | IC50 (hURAT1; [4]) | solubility at 2 h [1, 5] | solubility at 2 h [1, 6] | Solubility (μg/mL) pH 6.8 [1, 7] | Solubility (μg/mL) pH 1.2 ([1]; first solution pH about 1.2, 2 mg/mL) | SMILES | IC50 (hURAT1; IC50 (μM) hURAT, level of uric acid reuptake inhibition) | solubility at 2 h [1, 2] | solubility at 2 h [1, 3] | enhanced uricosuric activity compared to the compound disclosed in WO2006/057460 (Cebus monkey)
1 | > 60000 nM | 0.0408 µM | 1880 µg/mL (≈ 5800 µM) | 132 µg/mL (≈ 407 µM) |  |  | O=C(c1ccc(O)c(C(F)(F)F)c1)N1CCOc2ccncc21 [Compound 12, (2,3-dihydro-pyrido[4,3-b][1,4]oxazin-4-yl)-(4-hydroxy-3-trifluoromethyl-phenyl)-methanone] |  |  |  | 
2 | 16600 nM | 0.126 µM | 1480 µg/mL (≈ 4410 µM) | 747 µg/mL (≈ 2230 µM) |  |  | O=C(c1cc(Cl)c(O)c([N+](=O)[O-])c1)N1CCOc2ccncc21 [Compound 14, (3-chloro-4-hydroxy-5-nitro-phenyl)-(2,3-dihydro-pyrido[4,3-b][1,4]oxazin-4-yl)-methanone] |  |  |  | 
3 | 4500 nM | 0.458 µM | 1510 µg/mL |  | 453 μg/mL |  | O=C(c1cc(Cl)c(O)c(Cl)c1)N1CCOc2cnccc21 [Compound 15, (3,5-dichloro-4-hydroxy-phenyl)-(2,3-dihydro-pyrido[3,4-b][1,4]oxazin-1-yl)-methanone bromic acid salt] |  |  |  | 
4 | > 20000 nM | 0.363 µM | 1250 µg/mL (≈ 2580 µM) | 134 µg/mL (≈ 275 µM) |  |  | COC(=O)COc1c(Br)cc(C(=O)N2CCOc3ccncc32)cc1Br [Compound 24, (2,6-dibromo-4-(2,3-dihydro-pyrido[4,3-b][1,4]oxazin-4-carbonyl)-phenoxy]-acetic acid methyl ester] |  |  |  | 
5 | > 20000 nM | 0.235 µM | 1090 µg/mL (≈ 3720 µM) | 382 µg/mL (≈ 1310 µM) |  |  | O=C(c1cc(F)c(O)c(F)c1)N1CCOc2ccncc21 [Compound 29, (3,5-difluoro-4-hydroxy-phenyl)-(2,3-dihydro-pyrido[4,3-b][1,4]oxazin-4-yl)-methanone] |  |  |  | 
6 | > 40000 nM | 0.028 µM | 7.2 µg/mL (≈ 16.1 µM) | 332 µg/mL (≈ 740 µM) |  |  | O=C(c1cc(Br)c(O)c(Br)c1)N1CCOc2ccnc(Cl)c21 [Compound 30, (5-chloro-2,3-dihydro-pyrido[4,3-b][1,4]oxazin-4-yl)-(3,5-dibromo-4-hydroxy-phenyl)-methanone] |  |  |  | 
7 | 1930 nM | 0.175 µM | 1560 µg/mL (≈ 4650 µM) | 743 µg/mL (≈ 2210 µM) |  |  | O=C(c1cc(Cl)c(O)c([N+](=O)[O-])c1)N1CCOc2cnccc21 [Compound 36, (3-chloro-4-hydroxy-5-nitro-phenyl)-(2,3-dihydro-pyrido[3,4-b][1,4]oxazin-1-yl)-methanone] |  |  |  | 
8 | > 20000 nM | 0.212 µM | 1930 µg/mL (≈ 6640 µM) | 114 µg/mL (≈ 393 µM) |  |  | O=C(c1ccc(O)c(Cl)c1)N1CCOc2ccncc21 [Compound 37, (3-chloro-4-hydroxy-phenyl)-(2,3-dihydro-pyrido[4,3-b][1,4]oxazin-4-yl)-methanone] |  |  |  | 
9 | > 20000 nM | 0.376 µM |  |  | 156.54 μg/mL | 808.87 μg/mL | O=C(c1cc(Cl)c(O)c(Cl)c1)N1CCOc2cnccc21 [Compound 41, (3,5-dichloro-4-hydroxy-phenyl)-(2,3-dihydro-pyrido[3,4-b][1,4]oxazin-1-yl)-methanone] |  |  |  | 
10 | 18400 nM | 0.2 µM | 1310 µg/mL (≈ 3060 µM) | 143 µg/mL (≈ 333 µM) |  |  | O=C(Cc1cc(Br)c(O)c(Br)c1)N1CCOc2ccncc21 [Compound 42, 2-(3,5-dibromo-4-hydroxy-phenyl)-1-(2,3-dihydro-pyrido[4,3-b][1,4]oxazin-4-yl)-ethanone] |  |  |  | 

Continued, compound first:

Row | SMILES | IC50 (CYP2C9) | IC50 (hURAT1; [4]) | solubility at 2 h [1, 5] | solubility at 2 h [1, 6] | Solubility (μg/mL) pH 6.8 [1, 7] | Solubility (μg/mL) pH 1.2 ([1]; first solution pH about 1.2, 2 mg/mL) | IC50 (hURAT1; IC50 (μM) hURAT, level of uric acid reuptake inhibition) | solubility at 2 h [1, 2] | solubility at 2 h [1, 3] | enhanced uricosuric activity compared to the compound disclosed in WO2006/057460 (Cebus monkey)
11 | Br.O=C(c1cc(Br)c(O)c(Br)c1)N1CCOc2ccncc21 [Compound 3, (3,5-dibromo-4-hydroxy-phenyl)-(2,3-dihydro-pyrido[4,3-b][1,4]oxazin-4-yl)-methanone bromic acid salt] | 24500 nM |  |  |  |  |  | 0.0165 µM | 1420 µg/mL | 886 µg/mL | 180%
12 | Cc1ccc2c(n1)OCCN2C(=O)c1cc(Br)c(O)c(Br)c1 [Compound 7, (3,5-dibromo-4-hydroxy-phenyl)-(6-methyl-2,3-dihydro-pyrido[2,3-b][1,4]oxazin-1-yl)-methanone] | > 20000 nM | 0.3 µM | 106 µg/mL (≈ 247 µM) | 109 µg/mL (≈ 255 µM) |  |  |  |  |  | 
13 | CC1(C)CN(C(=O)c2cc(Br)c(O)c(Br)c2)c2cnccc2O1 [Compound 8, (3,5-dibromo-4-hydroxy-phenyl)-(2,2-dimethyl-2,3-dihydro-pyrido[4,3-b][1,4]oxazin-4-yl)-methanone] | > 20000 nM | 0.353 µM | 986 µg/mL (≈ 2230 µM) | 344 µg/mL (≈ 778 µM) |  |  |  |  |  | 
14 | Br.O=C(c1cc(Cl)c(O)c(Cl)c1)N1CCOc2ccncc21 [Compound 13, (3,5-dichloro-4-hydroxy-phenyl)-(2,3-dihydro-pyrido[4,3-b][1,4]oxazin-4-yl)-methanone bromic acid salt] | > 60000 nM | 0.337 µM |  |  |  |  |  | 1400 µg/mL | 847 µg/mL | 
15 | O=C(c1cc(Br)c(O)c(Br)c1)N1CCOc2ncc(C(F)(F)F)cc21 [Compound 22-2, (3,5-dibromo-4-hydroxy-phenyl)-(7-trifluoromethyl-2,3-dihydro-pyrido[2,3-b][1,4]oxazin-1-yl)-methanone] | 9450 nM | 0.0043 µM | < 0.1 µg/mL | 153 µg/mL (≈ 317 µM) |  |  |  |  |  | 
16 | Cc1cnc2c(c1)N(C(=O)c1cc(Br)c(O)c(Br)c1)CCO2 [Compound 27-2, (3,5-dibromo-4-hydroxy-phenyl)-(7-methyl-2,3-dihydro-pyrido[2,3-b][1,4]oxazin-1-yl)-methanone] | > 20000 nM | 0.012 µM | 207 µg/mL (≈ 484 µM) | 579 µg/mL (≈ 1350 µM) |  |  |  |  |  | 
17 | O=S(=O)(c1cc(Br)c(O)c(Br)c1)N1CCOc2ccncc21 [Compound 35-2, 2,6-dibromo-4-(2,3-dihydro-pyrido[4,3-b][1,4]oxazin-4-sulfonyl)-phenol] | > 20000 nM | 0.277 µM | 1460 µg/mL (≈ 3240 µM) | 234 µg/mL (≈ 519 µM) |  |  |  |  |  | 
18 | O=C(c1cc(Cl)c(O)c(Cl)c1)N1CCOc2ccncc21 [Compound 39, (3,5-dichloro-4-hydroxy-phenyl)-(2,3-dihydro-pyrido[4,3-b][1,4]oxazin-4-yl)-methanone] | > 20000 nM | 0.0884 µM | 1340 µg/mL (≈ 4120 µM) | 480 µg/mL (≈ 1480 µM) |  |  |  |  |  | 
19 | N#Cc1cnc2c(c1)N(C(=O)c1cc(Br)c(O)c(Br)c1)CCO2 [Compound 47-2, 1-(3,5-dibromo-4-hydroxy-benzoyl)-2,3-dihydro-1H-pyrido[2,3-b][1,4]oxazin-7-carbonitrile] | > 20000 nM | 0.0179 µM | 6.4 µg/mL (≈ 14.6 µM) | 330 µg/mL (≈ 751 µM) |  |  |  |  |  | 
20 | O=C(c1cc(Br)c(O)c(Br)c1)N1CCOc2ncncc21 [Compound 62, (3,5-dibromo-4-hydroxy-phenyl)-(6,7-dihydro-pyrimido[4,5-b][1,4]oxazin-5-yl)-methanone] | > 20000 nM | 0.128 µM | 34.8 µg/mL (≈ 83.8 µM) | 624 µg/mL (≈ 1500 µM) |  |  |  |  |  | 
